In PMC9178793, “A Direct Assay for Measuring the Activity and Inhibition of Coactivator-Associated Arginine Methyltransferase 1” (Biochemistry, 2022):
Where two headings read alike, the source gives them in different places. *1 amine or outer side, *2 acyl side, *3 side chain or, on linkers, in order; H or OH if unused. Where a SMILES comes first, the peptide text is derived from it. [ ]: non-standard residue; d: D form. X1 = N=C(NCCC[C@H](N[*:1])C(=O)[*:2])NCCC[C@H]1O[C@@H](n2cnc3c(N)ncnc32)[C@H](O)[C@@H]1O

Tests used:
CARM1 [1] = biological target: T1, CARM1 (Mus musculus, UniProt Q9WVG6); experiment: MRM LC-MS CARM1 enzyme inhibition assay (PABP1 456–466 peptide substrate, direct detection of aDMA product); format: biochemical; settings: 286 nM CARM1, 12 μM PABP1 456–466, 10 μM AdoMet, 15 min preincubation, 2 h room temperature; duplicate data, ± SD
T1 construct: corresponding to the PRMT core (residues 130–497, mmCARM1_130–497) were amplified by PCR; GST (followed by TEV protease cleavage site) (N, cleaved yes); made in house; host or cells: Sf9 insect cells (baculovirus)
T1 sequence (Q9WVG6 130-497): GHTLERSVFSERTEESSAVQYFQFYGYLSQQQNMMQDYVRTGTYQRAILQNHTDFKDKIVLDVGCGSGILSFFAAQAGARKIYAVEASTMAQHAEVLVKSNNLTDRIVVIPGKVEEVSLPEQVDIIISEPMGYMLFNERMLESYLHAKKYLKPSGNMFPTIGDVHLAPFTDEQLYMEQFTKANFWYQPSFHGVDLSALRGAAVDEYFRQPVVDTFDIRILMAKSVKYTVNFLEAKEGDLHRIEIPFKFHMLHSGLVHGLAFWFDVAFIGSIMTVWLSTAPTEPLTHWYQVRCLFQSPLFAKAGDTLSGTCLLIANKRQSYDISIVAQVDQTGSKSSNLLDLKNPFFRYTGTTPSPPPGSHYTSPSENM
Excerpt: The positive clones were confirmed by sequencing (GATC). The sequences were subcloned in a pDEST20 vector using an LR reaction. The resulting recombinant protein is harboring an amino-terminal glutathione S-transferase (GST) tag followed by a Tobacco etch virus (TEV) protease cleavage site. […] Bacmid DNA purified from recombination-positive white colonies was transfected into Sf9 cells using the Lipofectin reagent (Invitrogen). Viruses were harvested 10 days after transfection. Sf9 cells were grown at 300 K in suspension culture in Grace medium (Gibco) using Bellco spinner flasks. sf9 cell culture (1 L, 0.8 × 10^6 cells·mL^-1) was infected with recombinant […]1 virus with an infection multiplicity of 1. The cells were harvested 48 h post-infection. Cell lysis was performed by sonication in 50 mL of buffer A [50 mM Tris-HCl pH 8.0, 250 mM NaCl, 5% glycerol, 5 mM TCEP, 0.01% NP40 and anti-proteases (Roche, Complete, EDTA-free)], and cellular debris was sedimented by centrifugation of the lysate at 40 000g for 30 min. The supernatant was incubated overnight at 277 K with 2 mL of glutathione Sepharose resin (GE Healthcare). After a short centrifugation, the supernatants were discarded, and the beads were poured in an Econo-column (Bio-Rad). After two washing steps with 10 mL of buffer A, 2 mL of buffer A supplemented with in-house produced TEV protease was applied to the columns and digestion was performed for 4 h at 303 K with gentle mixing. The digest was concentrated with an Amicon Ultra 10K (Milipore), loaded on a gel-filtration column (HiLoad 16/60 Superdex S200, GE Healthcare), and eluted at 1 mL·min^-1 with buffer B [20 mM Tris-HCl pH 8.0, 100 mM NaCl, 1 mM TCEP] using an ÄKTA Purifier device (GE Healthcare). Fractions containing […]1_130-497 were pooled and concentrated to 7.75 mg·mL^-1. […] The reaction was subsequently quenched by the addition of 30 μL of the reaction mixture to 10 μL of a 0.1% formic acid solution (pH 2). […] The supernatant (60 μL) was transferred to a new 96-well plate and analyzed. […] The products were eluted with a water-acetonitrile gradient moving from 20 to 92% acetonitrile (0.1% FA) over 6 min at a flow rate of 0.5 mL·min^-1. The injection volume was 10 μL. The ionization source was operated in positive mode using an interface voltage of 4.5 kV, nebulizing gas at 1.5 L/min, drying gas at 15 L/min, and a desolvation line (DL) temperature of 250 °C. The MRM parameter optimization was performed using both the analyte (PABP1^456-466-R^460-aDMA) and hexadeuterated internal standard (PABP1^456-466-R^460-d6-aDMA). The results of this optimization, which include precursor ion scanning, collision energy, and Q1 and Q3 scanning, are summarized in Table 1. […] For commercially available inhibitors that were not soluble in water, stock solutions were prepared in DMSO and diluted to a final DMSO concentration of <1% in the assay mixture. […] The mixture was incubated for 2 h at room temperature, and the reaction was subsequently quenched by the addition of 30 μL of the reaction mixture to 10 μL of a 0.1% formic acid solution (pH 2). […] The supernatant (60 μL) was transferred to a new 96-well plate and analyzed by LC-MS as described above. Negative controls (no enzyme) and positive controls (no inhibitor) were included in each plate. For quantification of the methylated product, the area ratio of analyte to internal standard was calculated and quantified using the linearity line obtained with the reference standards. […] To obtain kcat with units of s^-1, the maximal velocity (Vmax) is divided by 3600. [drawing 3] 3 The percentage inhibition was plotted as a function of inhibitor concentration and fit using a nonlinear regression analysis of the sigmoidal dose-response curve generated using the normalized data and a variable slope following eq 4. [drawing 4] 4 where Y is the percent inhibition, X is the logarithmic concentration of the inhibitors, and Hill Slope is the slope factor or Hill coefficient. […]

CARM1 [2] = biological target: T2, CARM1 (Homo sapiens, UniProt Q86X55); experiment: commercially available chemiluminescent antibody-based ELISA kit (histone H3-derived peptide, aDMA at H3-R17); format: biochemical
T2 sequence (Q86X55 1-608): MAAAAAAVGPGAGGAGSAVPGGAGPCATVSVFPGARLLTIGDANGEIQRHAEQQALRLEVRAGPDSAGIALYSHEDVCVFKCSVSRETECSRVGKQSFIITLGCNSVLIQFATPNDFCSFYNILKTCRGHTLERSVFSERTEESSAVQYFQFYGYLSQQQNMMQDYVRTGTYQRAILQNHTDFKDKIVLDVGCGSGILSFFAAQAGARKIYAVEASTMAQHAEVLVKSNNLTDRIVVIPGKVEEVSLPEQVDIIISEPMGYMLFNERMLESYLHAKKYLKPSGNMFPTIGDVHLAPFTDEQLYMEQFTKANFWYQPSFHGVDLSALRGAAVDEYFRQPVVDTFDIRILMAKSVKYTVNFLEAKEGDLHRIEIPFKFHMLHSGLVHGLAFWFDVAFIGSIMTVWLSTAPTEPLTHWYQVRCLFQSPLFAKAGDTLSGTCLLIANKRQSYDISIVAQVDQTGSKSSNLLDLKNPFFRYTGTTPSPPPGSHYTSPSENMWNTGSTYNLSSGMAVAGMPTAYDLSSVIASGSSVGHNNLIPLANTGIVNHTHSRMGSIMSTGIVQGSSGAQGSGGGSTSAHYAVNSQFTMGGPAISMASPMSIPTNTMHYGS
Protocol: We next applied the assay in assessing the inhibition of CARM1 by a number of known inhibitors of varying potencies including AdoHcy (1), MS023 (2), MS049 (3), TP064 (4), and a series of recently reported peptidomimetic CARM1 inhibitors (5–9) (Figure 3).[20],[32]−[35] For the purpose of generating IC50 curves for these inhibitors, concentration ranges were set according to previously reported IC50 values. The inhibitors were first incubated with CARM1 for 15 min at room temperature before the enzyme reaction was initiated by the addition of the AdoMet/PABP1^456–466 substrate mixture. On the basis of the residual CARM1 activity measured, inhibition curves were generated and the IC50 values were determined (Table 3). To evaluate the suitability of the method for the determination of CARM1 inhibition, the IC50 values were compared with those obtained using a commercially available chemiluminescent ELISA kit. […] In addition, the peptide substrate and detection method employed in the ELISA kit are inherently different. The kit employs a histone H3-derived peptide that is covalently linked to the bottom of the well plate, and as such, no substrate concentration is given. Product formation in turn is detected using specific antibodies that recognize aDMA formation at arginine residue H3-R^17.

CARM1 [3] = biological target: T2, CARM1; settings: chemiluminescent ELISA kit, H3-derived peptide, 1 μM AdoMet; cited from earlier work

Structure (SMILES)	IC50 (CARM1 [1]) [nM]	IC50 (CARM1 [2]) [nM]	IC50 (CARM1 [3]) [nM]
CNCCN1CCC(c2cc(CN(C)C(=O)c3cccc(Oc4ccccc4)c3)ccn2)CC1 [Compound 4, reference compound]	162 ± 10	–	–
CC(=O)N1CCC[C@H]1C(=O)N[C@@H](CCCNC(=N)NCCC[C@H]1O[C@@H](n2cnc3c(N)ncnc32)[C@H](O)[C@@H]1O)C(=O)N[C@@H](CCCCN)C(=O)N[C@@H](CCC(N)=O)C(N)=O [Compound 8]	1460 ± 21	–	–
CC(=O)N[C@@H](C)C(=O)N1CCC[C@H]1C(=O)N[C@@H](CCCNC(=N)NCCC[C@H]1O[C@@H](n2cnc3c(N)ncnc32)[C@H](O)[C@@H]1O)C(=O)N[C@@H](CCCCN)C(=O)N[C@@H](CCC(N)=O)C(=O)N[C@@H](CC(C)C)C(N)=O [Compound 7] (Ac-AP[X1]KQL-NH2)	617 ± 57	–	–
CC(C)Oc1ccc(-c2c[nH]cc2CN(C)CCN)cc1 [Compound 2, reference compound]	327 ± 34	101 ± 11	–
CC(=O)N[C@@H](CCCCN)C(=O)N[C@@H](C)C(=O)N1CCC[C@H]1C(=O)N[C@@H](CCCNC(=N)NCCC[C@H]1O[C@@H](n2cnc3c(N)ncnc32)[C@H](O)[C@@H]1O)C(=O)N[C@@H](CCCCN)C(=O)N[C@@H](CCC(N)=O)C(=O)N[C@@H](CC(C)C)C(=O)N[C@@H](C)C(N)=O [Compound 6] (Ac-KAP[X1]KQLA-NH2)	403 ± 28	–	–
CC(=O)N[C@@H](CO)C(=O)N[C@H](C(=O)NCC(=O)NCC(=O)N[C@@H](CCCCN)C(=O)N[C@@H](C)C(=O)N1CCC[C@H]1C(=O)N[C@@H](CCCNC(=N)NCCC[C@H]1O[C@@H](n2cnc3c(N)ncnc32)[C@H](O)[C@@H]1O)C(=O)N[C@@H](CCCCN)C(=O)N[C@@H](CCC(N)=O)C(=O)N[C@@H](CC(C)C)C(=O)N[C@@H](C)C(=O)N[C@H](C(=O)N[C@@H](CCCCN)C(=O)N[C@@H](C)C(=O)N[C@@H](C)C(N)=O)[C@@H](C)O)[C@@H](C)O [Compound 5] (Ac-STGGKAP[X1]KQLATKAA-NH2)	770 ± 98	–	–
Nc1ncnc2c1ncn2[C@@H]1O[C@H](CSCC[C@H](N)C(=O)O)[C@@H](O)[C@H]1O [Compound 1, S-adenosyl-L-homocysteine, reference compound]	873 ± 339	–	–
CSCC[C@H](NC(=O)[C@@H](NC(=O)[C@H](CO)NC(=O)[C@H](Cc1ccccc1)NC(=O)[C@@H]1CCCN1C(=O)[C@@H]1CCCN1C(=O)[C@H](CCCNC(=N)NCCC[C@H]1O[C@@H](n2cnc3c(N)ncnc32)[C@H](O)[C@@H]1O)NC(=O)[C@@H]1CCCN1C(=O)[C@H](C)NC(=O)[C@H](C)NC(=O)[C@@H]1CCCN1C(C)=O)[C@@H](C)O)C(N)=O [Compound 9] (Ac-PAAP[X1]PPFSTM-NH2)	212 ± 25	–	90 ± 16
